Entries after “also recorded” stand apart in the source; their conditions may differ.
Assays:
[1] = target: T1, PPARδ (Homo sapiens, UniProt Q03181); test: PPARδ CALUX reporter gene assay; type: cell-based; design: key: –: no effect observed up to the highest test concentration; settings: PC10, 24 h exposure
T1 construct: expression construct for the full-length human receptor under investigation; expressed in transfected cells; host or cells: human U2-OS cells (ATCC HTB-96), stably transfected
T1 sequence (Q03181 1-441): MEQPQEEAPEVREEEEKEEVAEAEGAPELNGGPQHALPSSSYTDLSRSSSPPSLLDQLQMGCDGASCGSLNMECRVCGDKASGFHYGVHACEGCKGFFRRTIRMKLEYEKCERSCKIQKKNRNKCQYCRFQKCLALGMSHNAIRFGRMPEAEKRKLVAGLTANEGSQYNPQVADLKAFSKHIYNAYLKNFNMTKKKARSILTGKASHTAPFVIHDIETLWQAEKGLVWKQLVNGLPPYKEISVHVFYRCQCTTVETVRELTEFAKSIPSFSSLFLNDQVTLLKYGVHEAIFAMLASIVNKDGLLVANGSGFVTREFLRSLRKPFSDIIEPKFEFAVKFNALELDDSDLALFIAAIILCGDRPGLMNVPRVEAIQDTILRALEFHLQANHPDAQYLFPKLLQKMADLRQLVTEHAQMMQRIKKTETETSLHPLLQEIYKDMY
Source text: nitroaniline ≥98.0% was purchased from Alfa Aeser. Cyrene was supplied by Circa group. N-butylpyrrolidinone was supplied by Eastman chemicals. […]
(§1) Polyarylethersulfone of 55,000 Da were obtained from INGE.BASF, Germany. The CALUX cell lines have been described previously.[1] They are based on human U2-OS cells (ATCC, HTB-96) stably transfected with an expression construct for the full-length human receptor under investigation, and a reporter construct consisting of multimerized responsive elements for the cognate receptor coupled to a minimal promoter element (TATA) and a luciferase gene. Cells were maintained as described previously,[2] using cell culture media and supplements from Fisher Scientific as described in the experimental procedures section. […]
(§2) In vitro reporter gene assays
(§3) The automated CALUX assays were carried out similarly as described earlier,[12] with some adaptations. In brief, the assay was performed in CO2 independent medium (Fisher Scientific, […]
(§4) with 30 µl cell suspension/well. After 24 h, exposure medium was prepared. A dilution series in 0.5log unit increments of each test compound (in DMSO) was added to a 96-wells plate containing assay medium (2% v/v). Of this exposure mixture, 30 µl was added to the assay plates containing the CALUX cells, resulting in a final DMSO concentration of 1%. Additionally, DMSO blanks and a full dose response curve of the relevant reference compound were included on each plate. All samples were tested in triplicate. The preparation of the compound dilution series as well as the exposure of the cells were performed on a Hamilton StarLET liquid handling robot coupled to a Cytomat incubator.
Directly after exposure, plates were sealed with non-breathing plate seals (Plate sealer, easy seal […]
After 24 h the exposure medium was removed using an EL406 washer-dispenser (BioTek) and 10 µl/well triton lysisbuffer was added by the EL406.
(§5) Subsequently, the luciferase signal was measured in a luminometer (InfinitePro coupled to a Connect Stacker, both TECAN). In order to be able to detect receptor antagonism, several assays were also performed in antagonistic mode. The assay procedure was as described above, with the only exception that the EC50 concentration of the reference agonist was present during the exposure.
The luminometer data was analysed as follows; the average of the triplicate wells was determined, […]

[2] = Miscibility with hexane; type: physicochemical; settings: this work
[3] = system: p21; test: p21 CALUX assay (DNA damage response); type: cell-based, human; design: key: –: no effect observed up to the highest test concentration; settings: cell signaling pathway assay, 24 h exposure
Source text: Six of the CALUX assays (TCF through p53) detect activation of several cellular signaling pathways, which are indicative of general stress and acute toxicity, but also a range of more specific types of toxicity, including reproductive toxicity. […]
DCM ≥99.5%, chloroform ≥99.5%, DMSO ≥99.0% were purchased from VWR. […]
as §1, §2, §3
as §4, with “supplement (Fisher Scientific, 11574466), 10 U/mL penicillin and 10 µg/mL streptomycin. A cell suspension in assay medium was made of 1 × 10^5cells/mL, and white 384-wells plates were seeded with” for “with”
Directly after exposure, plates were sealed with non-breathing plate seals (Plate sealer, easy seal transparent; Greiner-Bio-One, 676001). After 24 h the exposure medium was removed using an EL406 washer-dispenser (BioTek) and 10 µl/well triton lysisbuffer was added by the EL406.
as §5
The luminometer data was analysed as follows; the average of the triplicate wells was determined, and the average blank (DMSO) value was subtracted. For receptor-based assays the maximum response elicited by the reference compound was set to 100% (full receptor- or pathway activation), and the other values were scaled accordingly. GraphPad Prism was used to fit a sigmoidal curve through the data (four parameters, variable slope). […] For antagonist- and cytotoxicity experiments, PC20 values were determined instead, which was defined as the concentration where the test compound causes a 20% decrease in the basal signal, which was […]
curve, the signal induction above background (DMSO) was determined, and the concentration where the compound elicited a 1.5-fold increase above background was used as LEC.

[4] = Octanol/water partition coefficient (Log P(o/w)), shake flask method; type: physicochemical; settings: this work
Source text: The succindiamides have large, positive Log P (o/w) values, meaning they favor the organic layer in an octanol/water biphasic system and are therefore more lipophilic.37 In contrast, the traditional dipolar aprotics have large, negative Log P (o/w) values so are more hydrophilic. […] Importantly, none of the succindiamide solvents have a Log P (o/w) above 4, the value that has been set as a threshold for bioaccumulation in the environment. […]
Equation S2. π = ν [DMSO]−ν [cyclohexane] […]
Determination of octanol/water partition coefficient (Log P(o/w))
Determination of the log P(o/w) was done by the shake flask method. 1.5 mL each of octanol and water were mixed in a 4 mL vial. 30 μL of the test solute and 10 μL of an internal standard (diglyme) were added and the mixture was shaken for 30 seconds and allowed to stand overnight. Samples (1 mL) were taken from both the aqueous and organic layers and added to 1.5 mL GC vials for GC analysis.
Log P(o/w) was obtained using Equation S5.

Row | SMILES | LEC PPARδ [1] | Hexane misc. [2] | LEC p21 [3] | logP [4]
1 | CCCCN1CCCC1=O [NBP, N‐Butylpyrrolidinone, reference compound] | −2.3 Log M | miscible; also recorded: yes^[a] | – | 0.99
2 | CCCCN(CCCC)C(=O)CCC(=O)N(CCCC)CCCC [TBSA, N,N,N′,N′‐tetrabutylsuccindiamide] | – | yes^[a] | – | 3.77
3 | CN1CCCC1=O [NMP, N‐methyl‐2‐pyrrolidone, reference compound] |  | no^[a] | −2.0 Log M | 
4 | CCCCN(CC)C(=O)CCC(=O)N(CC)CCCC [EBSA, N,N′‐diethyl‐N,N′‐dibutylsuccindiamide] | – | yes^[a] | – | 2.72
5 | CCCCN(C)C(=O)CCC(=O)N(C)CCCC [MBSA, N,N′‐dimethyl‐N,N′‐dibutylsuccindiamide] | – | yes^[a] | – | 1.65

From paper PMC7318222, “A Family of Water‐Immiscible, Dipolar Aprotic, Diamide Solvents from Succinic Acid” (Chemsuschem, 2020)
